Data reported in US11053204B2, “Pyrimidinyloxy benzene derivatives as herbicides” (FMC Corporation, priority 2015, dated 2021).

Key:
Assay type in all cases: in vivo
[1] = tested on: Italian ryegrass (Lolium multiflorum); assay: Test A preemergence, visual injury rating
Method in brief: (§1)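 Visual injury scored 0–100 (100 = complete control) against untreated controls about 10 days after treatment in a greenhouse. Test chemicals, formulated with surfactant in non-phytotoxic solvent, were sprayed on soil preemergence or on 2-10 cm, one- to two-leaf plants postemergence.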

[2] = tested on: barnyardgrass (Echinochloa crus-galli); assay: Test A preemergence, visual injury rating
Method in brief: as §1

[3] = tested on: giant foxtail (Setaria faberii); assay: Test A preemergence, visual injury rating
Method in brief: as §1

[4] = tested on: kochia (Kochia scoparia); assay: Test A preemergence, visual injury rating
Method in brief: as §1

[5] = tested on: pigweed (Amaranthus retroflexus); assay: Test A preemergence, visual injury rating
Method in brief: as §1

[6] = tested on: ragweed (common ragweed, Ambrosia elatior); assay: Test A preemergence, visual injury rating
Method in brief: as §1

[7] = tested on: chickweed (common chickweed, Stellaria media); assay: Test C postemergence, plant response rating; conditions: for Chickweed plant response rating: scale 0 to 100 (0 no effect, 100 complete control)
Method in brief: (§2)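 Visual injury score, 0 = no effect, 100 = complete control, assigned against untreated controls after 13 to 15 d in the greenhouse. Compounds were applied in a surfactant-containing non-phytotoxic solvent mix, preemergence to seeded loam/sand or silt loam soil, or postemergence to 1- to 4-leaf plants (2 to 18 cm).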

[8] = tested on: corn (Zea mays); assay: Test C postemergence, plant response rating; conditions: for Corn plant response rating: scale 0 to 100 (0 no effect, 100 complete control)
Method in brief: as §2

[9] = tested on: crabgrass, large (large crabgrass, Digitaria sanguinalis); assay: Test C postemergence, plant response rating; conditions: for Crabgrass, Large plant response rating: scale 0 to 100 (0 no effect, 100 complete control)
Method in brief: as §2

[10] = tested on: galium (catchweed bedstraw, Galium aparine); assay: Test C postemergence, plant response rating; conditions: for Galium plant response rating: scale 0 to 100 (0 no effect, 100 complete control)
Method in brief: as §2

[11] = tested on: kochia (Kochia scoparia); assay: Test C postemergence, plant response rating; conditions: for Kochia plant response rating: scale 0 to 100 (0 no effect, 100 complete control)
Method in brief: as §2

[12] = tested on: lambsquarters (Chenopodium album); assay: Test C postemergence, plant response rating; conditions: for Lambsquarters plant response rating: scale 0 to 100 (0 no effect, 100 complete control)
Method in brief: as §2

[13] = tested on: nutsedge, yellow (yellow nutsedge, Cyperus esculentus); assay: Test C postemergence, plant response rating; conditions: for Nutsedge, Yellow plant response rating: scale 0 to 100 (0 no effect, 100 complete control)
Method in brief: as §2

[14] = tested on: oat, wild (wild oat Avena fatua); assay: Test C postemergence, plant response rating; conditions: for Oat, Wild plant response rating: scale 0 to 100 (0 no effect, 100 complete control)
Method in brief: as §2

[15] = tested on: ragweed (common ragweed, Ambrosia elatior); assay: Test C postemergence, plant response rating; conditions: for Ragweed plant response rating: scale 0 to 100 (0 no effect, 100 complete control)
Method in brief: as §2

[16] = tested on: ryegrass, Italian (Italian ryegrass, Lolium multiflorum); assay: Test C postemergence, plant response rating; conditions: for Ryegrass, Italian plant response rating: scale 0 to 100 (0 no effect, 100 complete control)
Method in brief: as §2

[17] = tested on: soybean (Glycine max); assay: Test C postemergence, plant response rating; conditions: for Soybean plant response rating: scale 0 to 100 (0 no effect, 100 complete control)
Method in brief: as §2

[18] = tested on: waterhemp (common waterhemp, Amaranthus rudis); assay: Test C postemergence, plant response rating
Method in brief: as §2

[19] = 31 g ai/ha, 0 to 100 scale, 0 no effect, 100 complete control
[20] = 125 g ai/ha, 0 to 100 scale (0 no effect, 100 complete control)

SMILES: O=C(CCC(F)(F)F)c1c(Br)cccc1Oc1ncc(Cl)cn1 [Compound 92]
- Plant response rating, Ryegrass, Italian [1, 19]: 30
- Ryegrass, Italian plant response rating [1, 20]: 80
- Plant response rating, Barnyardgrass [2, 19]: 70
- Barnyardgrass plant response rating [2, 20]: 100
- Plant response rating, Foxtail, Giant [3, 19]: 100
- Foxtail, Giant plant response rating [3, 20]: 100
- Plant response rating, Kochia [4, 19]: 90
- Kochia plant response rating [4, 20]: 90
- Plant response rating, Pigweed [5, 19]: 100
- Pigweed plant response rating [5, 20]: 100
- Plant response rating, Ragweed [6, 19]: 0
- Ragweed plant response rating [6, 20]: 0
- Plant response rating, Chickweed ([7]; 16 g ai/ha, scale of 0 to 100): 100
- Plant response rating, Chickweed ([7]; 31 g ai/ha, scale 0 to 100): 100
- Chickweed plant response rating ([7]; 62 g ai/ha): 100
- Chickweed plant response rating ([7]; 125 g ai/ha): 100
- Plant response rating, Corn ([8]; 16 g ai/ha, scale of 0 to 100): 10
- Plant response rating, Corn ([8]; 31 g ai/ha, scale 0 to 100): 20
- Corn plant response rating ([8]; 62 g ai/ha): 15
- Corn plant response rating ([8]; 125 g ai/ha): 20
- Plant response rating, Crabgrass, Large ([9]; 16 g ai/ha, scale of 0 to 100): 20
- Plant response rating, Crabgrass, Large ([9]; 31 g ai/ha, scale 0 to 100): 10
- Crabgrass, Large plant response rating ([9]; 62 g ai/ha): 25
- Crabgrass, Large plant response rating ([9]; 125 g ai/ha): 35
- Plant response rating, Galium ([10]; 16 g ai/ha, scale of 0 to 100): 80
- Plant response rating, Galium ([10]; 31 g ai/ha, scale 0 to 100): 85
- Galium plant response rating ([10]; 62 g ai/ha): 100
- Galium plant response rating ([10]; 125 g ai/ha): 100
- Plant response rating, Kochia ([11]; 16 g ai/ha, scale of 0 to 100): 100
- Plant response rating, Kochia ([11]; 31 g ai/ha, scale 0 to 100): 100
- Kochia plant response rating ([11]; 62 g ai/ha): 100
- Kochia plant response rating ([11]; 125 g ai/ha): 100
- Plant response rating, Lambsquarters ([12]; 16 g ai/ha, scale of 0 to 100): 40
- Plant response rating, Lambsquarters ([12]; 31 g ai/ha, scale 0 to 100): 60
- Lambsquarters plant response rating ([12]; 62 g ai/ha): 50
- Lambsquarters plant response rating ([12]; 125 g ai/ha): 85
- Plant response rating, Nutsedge, Yellow ([13]; 16 g ai/ha, scale of 0 to 100): 0
- Plant response rating, Nutsedge, Yellow ([13]; 31 g ai/ha, scale 0 to 100): 10
- Nutsedge, Yellow plant response rating ([13]; 62 g ai/ha): 10
- Nutsedge, Yellow plant response rating ([13]; 125 g ai/ha): 20
- Plant response rating, Oat, Wild ([14]; 16 g ai/ha, scale of 0 to 100): 5
- Plant response rating, Oat, Wild ([14]; 31 g ai/ha, scale 0 to 100): 5
- Oat, Wild plant response rating ([14]; 62 g ai/ha): 5
- Oat, Wild plant response rating ([14]; 125 g ai/ha): 5
- Plant response rating, Ragweed ([15]; 16 g ai/ha, scale of 0 to 100): 35
- Plant response rating, Ragweed ([15]; 31 g ai/ha, scale 0 to 100): 40
- Ragweed plant response rating ([15]; 62 g ai/ha): 60
- Ragweed plant response rating ([15]; 125 g ai/ha): 70
- Plant response rating, Ryegrass, Italian ([16]; 16 g ai/ha, scale of 0 to 100): 10
- Plant response rating, Ryegrass, Italian ([16]; 31 g ai/ha, scale 0 to 100): 15
- Ryegrass, Italian plant response rating ([16]; 62 g ai/ha): 10
- Ryegrass, Italian plant response rating ([16]; 125 g ai/ha): 30
- Plant response rating, Soybean ([17]; 16 g ai/ha, scale of 0 to 100): 30
- Plant response rating, Soybean ([17]; 31 g ai/ha, scale 0 to 100): 40
- Soybean plant response rating ([17]; 62 g ai/ha): 70
- Soybean plant response rating ([17]; 125 g ai/ha): 75
- Plant response rating, Waterhemp ([18]; 16 g ai/ha, scale of 0 to 100): 80
- Plant response rating, Waterhemp ([18]; 31 g ai/ha, scale 0 to 100): 85
- Waterhemp plant response rating ([18]; 125 g ai/ha, scale 0 to 100 (0 no effect, 100 complete control)): 100
